According to patent US20230255974A1, “USE OF THYROMIMETICS FOR THE TREATMENT OF CANCER” (THE UNIVERSITY OF VERMONT, priority 2020, published 2023):

Key:
[1] = tested on: SW1736 cells (SW-EV, SW-TRβ); assay: Apoptosis assay (PARP1 and caspase 3 cleavage, immunoblot); type: cell-based, human
Source text: Immunoblot Analysis. […] Proteins were resolved by polyacrylamide gel electrophoresis on 10% sodium dodecyl sulfate gels EC60752 (Life Technologies) and immobilized onto nitrocellulose membranes (GE Healthcare) by electroblot (Bio-Rad Laboratories). Specific proteins were detected by immunoblotting with the indicated antibodies (Table 4); immunoreactive proteins were detected by enhanced chemiluminescence (Thermo Scientific) on a ChemiDoc XRS+ (Bio-Rad Laboratories).
Apoptosis Assay. Cells were plated at a density of 50,000 cells/well and treated with vehicle (1 N NaOH) or 10^−8 M T3. After 5 days the cells were lysed for analysis by immunoblot. Poly (ADP-ribose) polymerase 1 (PARP1) and Caspase 3 cleavage were assessed to measure apoptotic signaling.
Immunoblot Analysis. […] Proteins were resolved by polyacrylamide gel electrophoresis on 10% sodium dodecyl sulfate gels EC60752 (Thermo Fisher Scientific) and immobilized onto nitrocellulose membranes (GE Healthcare, Chicago, Ill., USA) by electroblot (Bio-Rad Laboratories, Hercules, Calif., USA). Specific proteins were detected by immunoblotting with the indicated antibodies (Table 4); immunoreactive proteins were detected by enhanced chemiluminescence (Thermo Scientific) on a ChemiDoc XRS+ (Bio-Rad Laboratories).

[2] = tested on: SW1736 cells (SW-EV, SW-TRβ); assay: Migration (wound healing) assay, T3; type: cell-based, human; details: SW-TRβ treated with T3 vs SW-EV
Method: Migration Assay. Cell migration was determined by wound healing assay. Cells were plated and allowed to grow to 100% confluency. Two hours prior to scratching, cells were treated with […] Mitomycin C. A scratch was performed with a P1000 pipette tip and debris was washed away with PBS. Migration media was supplemented with 10^−8 M T3. Images were obtained at 0, 24, 48, and 72 hours. Wound closure was measured using ImageJ macro “Wound Healing Tool” (http://dev.mri.cnrs.fr/projects/imagej-macros/wiki/Wound_Healing_Tool). Values were normalized so that the initial scratch was 0% closure.

[3] = tested on: MDA-MB-468 cells (EV, TRβ); details: MDA-MB-468 in the presence of TRβ, 10 nM, 3 days
Method: Triple negative breast cancer were examined next. […] TNBC cancers and other advanced solid tumors have lower endogenous levels of expression of TRβ. […] Cell migration was measured by scratch assay (FIG. 28). […] Data are mean+/−SD; *indicates p<0.05 determined by t-test.

[4] = tested on: SW1736 cells (SW-EV, SW-TRβ); assay: Tumorsphere assay, T3; type: cell-based, human; details: 10^−8 M T3, seven days
[5] = tested on: SW1736 cells (SW-EV, SW-TRβ); assay: Growth assay (live cell imaging), T3; type: cell-based, human
Method: Culture of thyroid cell lines. Anaplastic thyroid cancer cell lines (SW1736 and KTC-2) were cultured in RPMI 1640 growth media with L-glutamine (300 mg/L), sodium pyruvate and nonessential amino acids (1%) (Cellgro/Mediatech), supplemented with 10% fetal bovine serum (Life Technologies) and penicillin-streptomycin ([…]) (Cellgro/Mediatech) at 37° C., 5% CO2, and 100% humidity. The cell lines were generously provided by Dr. John Copland III (Mayo Clinic). Lentivirally modified SW1736 cells were generated as recently described (Gillis et al., “Thyroid Hormone Receptor β Suppression of RUNX2 is Mediated by Brahma Related Gene 1 Dependent Chromatin Remodeling.” Endocrinol. 159(6):2484-94 (2018), which is hereby incorporated by reference in its entirety) with either an empty vector (SW-EV) or to overexpress TRβ (SW-TRβ). SW-EV and SW-TRβ were grown in the above conditions with the addition of 1 μg/ml puromycin (Gold Bio). All cells were authenticated by the Vermont Integrative Genomics Resource at the University of Vermont using short tandem repeat profiles and Promega GenePrint10 System (SW1736, May 2019; KTC-2, October 2019).
Growth Assays. Cell growth was measured either through live cell imaging or by cell counting at discrete points. Live cell imaging was used to assess the growth kinetics of SW-EV and SW-TRβ. To perform live cell imaging, 5000 cells were plated per well in 24 well plates. After 24 hours in phenol red free, charcoal stripped media, media was supplemented with either 10^−8 M T3 or equivolume vehicle (NaOH). Every two hours cells were imaged with a Lionheart automated microscope (BioTek) and quantified with Gen5 software (BioTek). The cells entered the log phase of growth at approximately 48 hours, and the portion of the curve following this point was used to calculate the doubling time of the cells. In order to measure growth manually, 25,000 cells were plated per well in a six well plate. […] Every 24 hours cell counts were assessed by hemocytometer.

[6] = tested on: interferon/JAK1/STAT1 pathway; assay: Interferon/JAK1/STAT1 pathway expression (immunoblot, qPCR); type: cell-based, human; details: SW-TRβ
Method: Immunoblot Analysis. Proteins were isolated from whole cells in lysis buffer (20 mM Tris-HCl [pH 8], 137 mM NaCl, 10% glycerol, 1% Triton X-100, and 2 mM EDTA) containing Protease Inhibitor Cocktail 78410 (Thermo Scientific). Proteins were resolved by polyacrylamide gel electrophoresis on 10% sodium dodecyl sulfate gels EC60752 (Life Technologies) and immobilized onto nitrocellulose membranes (GE Healthcare) by electroblot (Bio-Rad Laboratories). Specific proteins were detected by immunoblotting with the indicated antibodies (Table 4); immunoreactive proteins were detected by enhanced chemiluminescence (Thermo Scientific) on a ChemiDoc XRS+ (Bio-Rad Laboratories). RNA Extraction and Quantitative Real-Time PCR (qRT-PCR). Total RNA was extracted using RNeasy Plus Kit (Qiagen) according to manufacturer's protocol. cDNA was then generated using the 5×RT Mastermix (ABM). Gene expression to validate RNASeq analysis was quantified by qRT-PCR using 2×SuperGreen Mastermix (ABM) on a QuantStudio 3 real-time PCR system (Applied Biosystems). Fold change in gene expression compared to endogenous controls was calculated using the ddCT method.

SMILES: N[C@@H](Cc1cc(I)c(Oc2ccc(O)c(I)c2)c(I)c1)C(=O)O [T3, (2S)-2-amino-3-[4-(4-hydroxy-3-iodophenoxy)-3,5-diiodophenyl]propanoic acid]
- caspase 3 and PARP1 cleavage ([1]; SW-EV and SW-TRβ, T3, 5 days): induced cleavage of these apoptotic effectors only in SW-TRβ
- apoptosis (cleaved PARP and caspase) ([1]; SW-TRβ, five days): induces apoptosis
- scratch closure (AUC) [2]: significantly reduced scratch closure
- cell migration and growth [3]: reduced cell migration and growth
- number of tumorspheres formed ([4]; SW-EV): no effect on the number of tumorspheres
- tumorsphere growth ([4]; SW-TRβ): blocked almost all tumorsphere growth
- growth rate ([5]; SW-EV, 10^−8 M T3 vs vehicle): modestly decreased the growth rate
- cellular growth ([5]; SW-TRβ (TRβ overexpression), 10^−8 M T3): profoundly reduced cellular growth
- doubling time ([5]; SW-TRβ, T3 treated): greatest doubling time
- expression of IRF1 target genes APOL6 and TNFSF10 (qPCR) ([6]; T3): Induction of IRF1 target genes APOL6 and TNFSF10
- expression of STAT1 target genes IRF1 and TAP1 (qPCR) ([6]; T3): increased the expression of STAT1 target genes IRF1 and TAP1
- expression of JAK1 and STAT1 ([6]; T3 treatment): significantly increased
